Patent US8729048B2, “Methods and materials for assessing responsiveness to PARP inhibitors and platinating agents” (Mayo Foundation for Medical Education and Research, priority 2011, dated 2014)

Tests used:
[1] = tested on: phospho-H2AX and phospho-DNA-PKcs foci in PEO1 cells; assay: Immunofluorescence / confocal foci in PEO1 cells; format: cell-based
Experimental: (§1) FIG. 2. DNA-PK is activated following PARP inhibitor exposure in PEO1 cells. (A) Western blots for poly(ADP-ribose) polymer (pADPr) and phosphorylation of DNA-PK substrates (DNA-PKcs autophosphorylation at Thr^2609 and Histone H2AX at Ser^139) in PEO1 cells following 72 hours exposure to increasing concentrations of ABT-888 (0, 0.625, 1.25, 2.5, 5, 10, 20, and 40 μM). Hsp90, total DNA-PKcs, and Histone H1 are used as loading controls. (B) Phosphorylation of DNA-PK substrates after treatment for 72 hours with diluent (0.2% DMSO, lanes 1 and 4), 500 nM DNA-PK inhibitor AZ12594248 (DNA-PKi, lanes 2 and 5), or 5 μM ATM inhibitor KU55933 (ATMi, lanes 3 and 6) alone (lanes 1-3) or in combination with 20 μM ABT-888 (lanes 4-6). (C) Quantitation of cells positive for phospho-H2AX foci in PEO1 and PEO4 cells, following treatment with DMSO, 500 nM DNA-PKi, 20 μM ABT-888 (ABT), ABT-888 and DNA-PKi, 50 μM Etoposide (Etop), or 5 Gy ionizing radiation (IR). Cells were exposed to ABT-888 and/or DNA-PKi for 72 hours, etoposide for 1 hour, or allowed to recover for 1 hour after IR. Results are reported as mean±SEM of 3 independent experiments. (D) Confocal images of PEO1 cells treated as in […]. Phospho-Ser^139-H2AX is shown in green, phospho-Thr^2609-DNA-PKcs in red, and Hoechst 33258 in blue.
FIG. 8. PARP inhibition induces phosphorylation of DNA-PKcs selectively in PEO1 cells. (A) Quantitation of PEO1 cells positive for phospho-Ser^2056 DNA-PKcs foci following 72 hours exposure to increasing concentrations of ABT-888. (B) Quantitation of PEO1 cells positive for phospho-Ser^2056 DNA-PKcs foci following 72 hours exposure to diluent (0.2% DMSO), 500 nM DNA-PKi, 5 μM ATMi alone (columns 1-3) or with 20 μM ABT-888 (columns 4-6). (C) Representative confocal images of PEO1 cells from (B). Phospho-H2AX is shown in green, phospho-Thr^2609 DNA-PKcs in red, and Hoechst 33258 in blue. Results in (A) and (B) are presented as means±SEM of 3 independent experiments.
FIG. 9. siRNA-mediated knockdown of NHEJ components reduces ABT-888 induced formation of phospho-H2AX foci. PEO1 cells, following siRNA-mediated knockdown of Ku80 (A) or Artemis (B), were exposed to either diluent (0.1% DMSO) or 20 μM ABT-888 for 72 hours, fixed, and stained for phospho-H2AX foci. Positive nuclei were defined as having >10 foci. Results are presented as means±SEM of 3 independent experiments. […]
Coverslips were then washed three times with PBS and incubated for 1 h with Alexa Fluor 488- and/or 568-conjugated secondary antibody (Invitrogen) diluted 1:1000. […] Phospho-H2AX positive cells (defined as having >10 foci/cell) were counted on a Zeiss Axioplan microscope. […] Quantitation and image processing were performed using the Zeiss Zen software package and Adobe Photoshop CS3.

[2] = tested on: DNA-PK substrates (DNA-PKcs Thr2609, Histone H2AX Ser139) in PEO1 cells; assay: Immunoblotting for phosphorylation of DNA-PK substrates; format: cell-based; conditions: 72 hours
Experimental: as §1
Cells were washed twice with calcium- and magnesium-free Dulbecco's phosphate-buffered saline (PBS) and solubilized in 6 M guanidine hydrochloride containing 250 mM Tris-HCl, pH 8.5 at 20° C., 10 mM EDTA, 1% (v/v) 2-mercaptoethanol, and 1 mM freshly added phenylmethylsulfonyl fluoride. After preparation for electrophoresis as described elsewhere (Kaufmann et al., Blood, 89:2098-2104 (1997)), aliquots containing 50 μg of protein (determined by the bicinchoninic acid method—S10) were separated on SDS-polyacrylamide gels containing 8% (w/v) acrylamide, electrophoretically transferred to nitrocellulose, and probed with immunological reagents as described elsewhere (Kaufmann, Anal. Biochem., 296:283-286 (2001)). […]

Row | Compound | phospho-H2AX foci ([1]; 20 μM ABT-888, 72 hours) | DNA-PKcs autophosphorylation at Ser2056 ([1]; 72 hours) | ABT-888 induced phospho-H2AX foci after downregulation of Ku80 or Artemis ([1]; siRNA knockdown, 20 μM ABT-888, 72 hours) | phosphorylation of DNA-PKcs at Thr2609 and H2AX at Ser139 ([2]; ABT-888 0-40 μM) | effect on ABT-888-induced formation of foci and phosphorylation of DNA-PKcs ([1]; 500 nM DNA-PKi with 20 μM ABT-888, 72 hours) | effect on ABT-888-induced phosphorylation of DNA-PKcs and H2AX ([2]; with 20 μM ABT-888, 500 nM DNA-PKi or 5 μM ATMi)
1 | C[C@]1(c2nc3c(C(N)=O)cccc3[nH]2)CCCN1 [ABT-888] | induced phospho-H2AX foci | increased | reduced ABT-888 induced phospho-H2AX foci | phosphorylated in a dose-dependent manner |  | 
2 | CCN1CCN(CC(=O)Nc2ccc(-c3cccc4c(=O)cc(N5CCOCC5)oc34)c3sc4ccccc4c23)CC1 [AZ 12594248] |  |  |  |  | reduced | prevented the ABT-888-induced phosphorylation of DNA-PKcs and H2AX
